The values below come from publication PMC8592027, “Structure-Guided Design of D-Galactal Derivatives with High Affinity and Selectivity for the Galectin-8 N-Terminal Domain” (ACS Medicinal Chemistry Letters, 2021).

Like-named read-outs stand apart in the source and are kept apart here.

One data set concerns the target T1, galectin-1 (Homo sapiens, UniProt P09382).
T1 construct: made in house
Description: Competitive fluorescence polarization assay, galectin-1. It counts as binding. The conditions noted are these: mean ± SEM of n = 4–8. How it is done:
(§1) 1. Competitive fluorescence polarization experiments:
(§2) Human galectins -1, -3, -4N, -4C, -7, -8N, -9N, and -9C were expressed and purified as previously described 30,41. Fluorescence polarisation experiments were performed using the PHERAstar FS plat e reader (software version 2.10 R3), and the fluorescence anisotropy of fluorescein tagged probes was measured by excitation at 485 nm and emission at 520 nm. The specific conditions for galectins -1, -3, -4N, -4C, -7, -8N, -9N, and -9C were kept as report ed30,41,42. The synthesised compounds were dissolved in pure DMSO at 20 mM concentration and diluted in PBS to 3-6 different concentrations, and each concentration was tested in duplicate. The highest inhibitor concentrations tested were 1.5 mM. The

Data set [1] deals with T2, galectin-2 (Homo sapiens, UniProt P05162).
T2 sequence (P05162 1-132): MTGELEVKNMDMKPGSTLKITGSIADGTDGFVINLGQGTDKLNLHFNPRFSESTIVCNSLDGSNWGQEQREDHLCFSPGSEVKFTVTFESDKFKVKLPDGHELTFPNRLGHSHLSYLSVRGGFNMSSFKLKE
In words: Competitive fluorescence polarization assay, galectin-2. The conditions noted are these: mean ± SEM of n = 4–8. The class given is binding.

Another data set concerns the target T3, galectin-3 (Homo sapiens, UniProt P17931).
T3 construct: made in house
Description: Competitive fluorescence polarization assay, galectin-3. It counts as binding. The settings on record: mean ± SEM of n = 4–8. As to the method: as §1, §2

In data set [2] the target is T4, galectin-4N (N-terminal domain) (Homo sapiens, UniProt P56470).
T4 construct: galectins (N = N-terminal domain, C = C-terminal domain); made in house
T4 sequence (P56470 19-150 limits assumed): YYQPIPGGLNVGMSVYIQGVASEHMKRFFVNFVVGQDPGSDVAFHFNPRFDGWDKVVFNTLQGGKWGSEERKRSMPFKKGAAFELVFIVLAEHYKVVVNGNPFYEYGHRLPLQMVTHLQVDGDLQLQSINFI
In words: Competitive fluorescence polarization assay, galectin-4N. It counts as binding. The settings on record: mean ± SEM of n = 4–8. As to the method:
as §1, §2

The target in data set [3] is T5, galectin-4C (C-terminal domain) (Homo sapiens, UniProt P56470).
T5 construct: galectins (N = N-terminal domain, C = C-terminal domain); made in house
T5 sequence (P56470 194-323 limits assumed): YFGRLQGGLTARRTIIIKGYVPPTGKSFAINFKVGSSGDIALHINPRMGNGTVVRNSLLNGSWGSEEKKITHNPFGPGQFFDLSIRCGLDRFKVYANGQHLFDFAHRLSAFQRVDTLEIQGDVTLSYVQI
Description: Competitive fluorescence polarization assay, galectin-4C. The class given is binding. The conditions noted are these: mean ± SEM of n = 4–8. How it is done: as §1, §2

Another data set deals with T6, galectin-7 (Homo sapiens, UniProt P47929).
T6 construct: made in house
T6 sequence (P47929 whole entry): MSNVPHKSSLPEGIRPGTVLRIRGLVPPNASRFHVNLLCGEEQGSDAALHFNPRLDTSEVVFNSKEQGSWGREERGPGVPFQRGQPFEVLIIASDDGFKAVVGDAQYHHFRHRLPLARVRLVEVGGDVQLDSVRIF
In words: Competitive fluorescence polarization assay, galectin-7. The class given is binding. The settings on record: mean ± SEM of n = 4–8. As to the method:
as §1, §2

The target in data set [4] is T7, galectin-8N (galectin-8 N-terminal domain) (Homo sapiens, UniProt O00214).
T7 construct: selective ligand for the galectin-8 N-terminal domain (galectin-8N); made in house
T7 sequence (O00214 19-152 limits assumed): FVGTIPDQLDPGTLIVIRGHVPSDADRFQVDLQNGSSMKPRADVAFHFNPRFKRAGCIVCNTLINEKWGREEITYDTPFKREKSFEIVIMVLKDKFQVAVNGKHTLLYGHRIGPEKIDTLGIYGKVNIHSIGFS
Description: Competitive fluorescence polarization assay, galectin-8N. It counts as binding. The settings on record: mean ± SEM of n = 4–8. As to the method: All synthesized D-galactal derivatives had higher binding affinities for galectin-8N than D-galactal 3.
as §1, §2

Data set [5] has as its target T8, galectin-9N (N-terminal domain) (Homo sapiens, UniProt O00182).
T8 construct: galectins (N = N-terminal domain, C = C-terminal domain); made in house
Description: Competitive fluorescence polarization assay, galectin-9N. The class given is binding. The conditions noted are these: mean ± SEM of n = 4–8. How it is done: as §1, §2

The target of data set [6] is T9, galectin-9C (C-terminal domain) (Homo sapiens, UniProt O00182).
T9 construct: galectins (N = N-terminal domain, C = C-terminal domain); made in house
T9 sequence (O00182 227-355 limits assumed): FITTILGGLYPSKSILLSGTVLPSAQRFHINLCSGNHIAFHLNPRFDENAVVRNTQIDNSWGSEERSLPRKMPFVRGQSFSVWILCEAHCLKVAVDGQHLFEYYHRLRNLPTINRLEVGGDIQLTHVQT
In words: Competitive fluorescence polarization assay, galectin-9C. The class given is binding. The conditions noted are these: mean ± SEM of n = 4–8. As to the method: as §1, §2

The next data set relates to K562 cancer cell line. Description: MTS metabolic activity (cytotoxicity) assay, K562. The conditions noted are these: concentrations 1 to 100 μM, 24 hours. The class given is cell-based. As to the method: (§3) We have investigated the cytotoxicity of the compounds 1, 6a, and 6c via a (3-(4,5-dimethylthiazol-2-yl)-5-(3-carboxymethoxyphenyl)-2-(4-sulfophenyl)-2H-tetrazolium) (MTS) assay in K562 and MDA-MB-231 cancer cell lines to establish the direct antitumor activity of compounds, as well as human peripheral blood mononuclear cells (PBMCs), to evaluate their safety.
(§4) Metabolic activity assay:
(§5) The metabolic activities of the cell lines were determined using the CellTiter 96 Aqueous One Solution cell proliferation assay (MTS Reagents, Promega, Madison, WI, USA), according to the manufacturer instructions. Briefly, the cells were treated with the selected compounds in 0.1% dimethyl sulfoxide (DMSO; vehicle), 0.1% DMSO (control vehicle), or medium (control) and seeded at a cell density of 5,500 cells/well (MDA-MB-231 cells) or 4 x 10^4 cells/well (K562 cells), 7000 cells/well (HepG2 cells) or 1 x 10^5 cells/well (human PBMCs) in duplicates (MDA-MB-231, K562, and […]) or triplicates for HepG2 cells (100 µL), in sterile 96-well plates. For the MDA-MB-231 and HepG2, the cells were left to adhere overnight before adding the compounds. The plates were then incubated for 24 hours (48 hours for HepG2), after which 15 µL of MTS reagent was added to each well. After 30-90 minute of incubation, the absorbance was measured at 492 nm using a microplate reader (Synergy HTX Multi-Mode; BioTek Instruments, Inc., VT, USA). […]
(§6) Bead Array Human inflammatory cytokine Kit (content: IL-1, IL-6, IL-8, IL-10, IL-12p). The flow cytometric analyses were performed on an Attune NxT flow cytometer (Thermo Fisher Scientific, […]
(§7) Data are represented as means ± standard deviation (SD) from three representative independent experiments.
(§8) All experiments were performed at least twice, with average values expressed as means ± SD. All data were analyzed with the statistical software GraphPad Prism 8.0 (GraphPad Software, Inc., CA, USA). by one-way ANOVA followed with Dunnett’s multiple compar ison test. Differences were considered non-significant for p > 0.05, and significant (*) for p < 0.05. […]

Data set [7] relates to MDA-MB-231 cancer cell line. In words: MTS metabolic activity (cytotoxicity) assay, MDA-MB-231. It counts as cell-based, human. The conditions noted are these: concentrations 1 to 100 μM, 24 hours. As to the method: as §3, §4, §5, §6, §7, §8
In data set [8] the test system is human peripheral blood mononuclear cells (PBMCs). Description: MTS metabolic activity (cytotoxicity) assay, PBMCs. It counts as cell-based. The conditions noted are these: concentrations up to 100 μM, 24 hours. As to the method: as §3, §4, §5, §6, §7, §8
Data set [9] addresses T10, galectin-8C (C-terminal domain) (Homo sapiens, UniProt O00214).
T10 construct: galectins (N = N-terminal domain, C = C-terminal domain)
T10 sequence (O00214 187-317 limits assumed): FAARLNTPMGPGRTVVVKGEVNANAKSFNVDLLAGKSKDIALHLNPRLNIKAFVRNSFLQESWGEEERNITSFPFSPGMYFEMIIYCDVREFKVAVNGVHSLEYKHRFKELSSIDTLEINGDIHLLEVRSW
Description: Competitive fluorescence polarization assay, galectin-8C. The conditions noted are these: mean ± SEM of n = 4–8. It counts as binding.

Data set [10] deals with T2, galectin-2. More on the design: method as in PMID 30117507, PMID 15889175, doi:10.1139/cjc-2015-0598. The settings on record: cited from earlier work.
Data set [11] deals with T8, galectin-9N (N-terminal domain). The conditions noted are these: cited from earlier work.
The target in data set [12] is T9, galectin-9C (C-terminal domain). The settings on record: cited from earlier work.

T8 sequence (O00182 17-148 limits assumed): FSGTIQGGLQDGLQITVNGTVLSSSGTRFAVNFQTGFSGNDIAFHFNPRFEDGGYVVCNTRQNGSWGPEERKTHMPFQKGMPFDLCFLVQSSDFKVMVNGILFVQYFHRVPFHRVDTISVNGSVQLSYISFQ
T1 sequence (P09382 whole entry): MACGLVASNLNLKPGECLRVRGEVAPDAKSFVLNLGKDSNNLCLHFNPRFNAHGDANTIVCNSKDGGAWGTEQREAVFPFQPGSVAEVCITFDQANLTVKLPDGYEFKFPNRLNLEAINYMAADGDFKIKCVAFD
T3 sequence (P17931 whole entry): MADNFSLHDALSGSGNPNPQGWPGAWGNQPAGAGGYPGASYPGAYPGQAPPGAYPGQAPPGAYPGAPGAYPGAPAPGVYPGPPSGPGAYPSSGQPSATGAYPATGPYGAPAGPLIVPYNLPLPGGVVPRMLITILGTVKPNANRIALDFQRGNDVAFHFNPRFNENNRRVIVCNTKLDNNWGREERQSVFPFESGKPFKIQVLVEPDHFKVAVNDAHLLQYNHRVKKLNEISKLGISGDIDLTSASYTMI

On to `O=C(O)c1ccc2nc(CO[C@@H]3C=CO[C@H](CO)[C@@H]3O)[nH]c2c1` [6c], for which the Kd on galectin-1 was over 1500 µM; on galectin-2 [1], 990 ± 170 µM; at galectin-3 it was 550 ± 32 µM; in data set [2], 1400 ± 230 µM; in data set [3], 1900 ± 400 µM; on galectin-7, over 1500 µM. For the same compound, the Kd in data set [4] was 46 ± 4 µM; in data set [5], over 1500 µM; in data set [6], 2500 µM. For the same compound, the “cell viability (MTS), K562” value in the data set with K562 cancer cell line is “None of the compounds decreased the viability”. Further, in [7], the “cell viability (MTS), MDA-MB-231” value is recorded as “None of the compounds decreased the viability”. In data set [8], the “direct cytotoxicity (MTS), PBMCs” value is listed as “lack of direct cytotoxicity”.

For `O=C(O)c1ccc2ccc(CO[C@@H]3C=CO[C@H](CO)[C@@H]3O)nc2c1` [compound 9], the Kd is 3600 µM on galectin-1; 1100 ± 200 µM at galectin-2 [1]; 590 ± 78 µM at galectin-3; over 1500 µM in data set [2]; 2800 ± 770 µM in data set [3]; over 1500 µM at galectin-7. The Kd in data set [4] is 48 ± 6 µM; in data set [9], 4700 ± 22 µM; in data set [5], 1800 ± 160 µM; in [6], over 1500 µM.

`CO[C@@H]1O[C@H](CO)[C@H](O)[C@H](O)[C@H]1O` [methyl β-D-galactoside]: the Kd on galectin-2 [10] was 13000 µM; in data set [11], 3300 µM; in data set [12], 8600 ± 7310 µM.
